Laboratory results from patent US4440761A, “Interferon inducer, a process for producing the same and pharmaceutical composition containing the same” (The Kitasato Institute, priority 1980, dated 1984).
Entries after “also recorded” stand apart in the source; their conditions may differ. Read-outs that look alike come from different tables or passages of the source.

Legend:
interferon = settings: background, cited from earlier work
[1] = 56° C. for 5 hours; cited from earlier work
spleen cell [2] = assay: IF induction in vitro, rabbit spleen cells (determined in RK-13); type: cell-based; settings: 1.0* μg/ml, control
Human spleen = assay: IF induction in vitro, human spleen (determined in FL cells); type: cell-based; settings: 1.0* μg/ml, control
Experimental: A spleen cell suspension (10^7 cells/ml) was prepared by the method of hereinafter described Experiment 1 using an Eagle MEM medium (commercial product of Nissui Seiyaku K.K., Tokyo) containing a 10% calf serum (which was replaced by a 10% fetal cattle serum in the cases of human tests), each of which fraction (1 ml) was added with a given concentration of the sample and incubated overnight at a given temperature. The cultured liquor was centrifuged to separate a supernatant which was used for determining the IF activity induced. In the case of humans, the fresh spleen was collected from a person (adult deceased by external wounds) and used for the preparation of a leucocytes suspension on each occasion, and also blood was collected from the vein at the upper arm of a person (adult), from which the serum was separated to use for the preparation of a serum suspension of each occasion.
The IF activities were determined by using the cells shown in Table 5 in a similar manner to that hereinafter described in Experiment 1.

spleen cell [3] = assay: IF induction in vitro, mouse spleen cells (determined in L cells); type: cell-based; settings: 1.0* μg/ml, control

Row | Compound | IF inducing activity (interferon) | IF-inducing activity on heating [1] | further results
1 | neocarthamine | no IF inducing activity | – | –
2 | phytohemagglutinin | very weak | inactivated | IF inducing activity (interferon; listed as phytohemagglitinin): extremely low
3 | O=C(/C=C/c1ccc(O)cc1)C1=C(O)[C@](O)([C@@H]2O[C@H](CO)[C@@H](O)[C@H](O)[C@H]2O)C(O)=C(/C=C2/C(=O)C(C(=O)/C=C/c3ccc(O)cc3)=C(O)[C@@](O)([C@@H]3O[C@H](CO)[C@@H](O)[C@H](O)[C@H]3O)C2=O)C1=O [carthamine] | no IF inducing activity | – | –
4 | carthamone | no IF inducing activity | – | –
5 | Poly I:C | – | – | IF activity in vitro (spleen cell [2]): 160; IF activity in vitro (Human spleen): < 10; IF activity in vitro (spleen cell [3]): 75
6 | pokeweed mitogen | very weak; also recorded: extremely low | inactivated | –
